Tests used:
H-81 [1] = assay: Compound was tested for its percentage inhibitory effect on the growth of H-81 tumor cell line from stomach at an iv dose of 2 mg/kg x10.; assay type: functional, Homo sapiens
DLD-1 [2] = assay: Compound was tested for its inhibitory effect on the growth of DLD-1 tumor cell line from colon.; assay type: functional, cell-based; settings: Homo sapiens
NUGC-3 = assay: Compound was tested for its inhibitory effect on the growth of NUGC-3 tumor cell line from stomach.; assay type: functional, cell-based; settings: Homo sapiens
MKN-28 = assay: Compound was tested for its inhibitory effect on the growth of MKN-28 tumor cell line from stomach.; assay type: functional, cell-based; settings: Homo sapiens
A549 = assay: Compound was tested for its inhibitory effect on the growth of A-549 tumor cell line from lung.; assay type: functional, cell-based; settings: Homo sapiens
AZ-521 cell line [3] = assay: Compound was tested for its inhibitory effect on the growth of AZ-521 tumor cell line from stomach.; assay type: functional, cell-based; settings: Homo sapiens
KM12 [4] = assay: Compound was tested for its percentage inhibitory effect on the growth of KM12C tumor cell line from colon at an iv dose of 2 mg/kg x10.; assay type: functional, Homo sapiens
T-24 = assay: Compound was tested for its inhibitory effect on the growth of T24 tumor cell line from bladder.; assay type: functional, cell-based; settings: Homo sapiens
SNU-C2A = assay: Compound was tested for its inhibitory effect on the growth of […] tumor cell line from colon.; assay type: functional, cell-based; settings: Homo sapiens
PANC-1 = assay: Compound was tested for its inhibitory effect on the growth of PANC-1 tumor cell line from pancreas.; assay type: functional, cell-based; settings: Homo sapiens
KKLS = assay: Compound was tested for its inhibitory effect on the growth of KKLS tumor cell line from stomach.; assay type: functional, cell-based; settings: Homo sapiens
AZ-521 cell line [5] = assay: Compound was tested for its percentage inhibitory effect on the growth of AZ-521 tumor cell line from stomach at an iv dose of 2 mg/kg x10.; assay type: functional, Homo sapiens
Co-3 [6] = assay: Compound was tested for its percentage inhibitory effect on the growth of CO-3 tumor cell line from colon at an iv dose of 2 mg/kg x10.; assay type: functional, Homo sapiens
DLD-1 [7] = assay: Compound was tested for its percentage inhibitory effect on the growth of DLD-1 tumor cell line from colon at an iv dose of 2 mg/kg x10.; assay type: functional, Homo sapiens
COLO 320DM = assay: Compound was tested for its inhibitory effect on the growth of COLO 320DM tumor cell line from colon.; assay type: functional, cell-based; settings: Homo sapiens
HCT-15 = assay: Compound was tested for its inhibitory effect on the growth of HCT-15 tumor cell line from colon.; assay type: functional, cell-based; settings: Homo sapiens
PAM12 [8] = assay: Compound was tested for its percentage inhibitory effect on the growth of PAN-12 tumor cell line from […] at an iv dose of 2 mg/kg x10.; assay type: functional, Homo sapiens
BXPC-3 [9] = assay: Compound was tested for its percentage inhibitory effect on the growth of BxPC-3 tumor cell line from […] at an iv dose of 2 mg/kg x10.; assay type: functional, Homo sapiens
SW48 = assay: Compound was tested for its inhibitory effect on the growth of SW-48 tumor cell line from colon.; assay type: functional, cell-based; settings: Homo sapiens
HT-1080 = assay: Compound was tested for its inhibitory effect on the growth of HT1080 sarcoma tumor cell line.; assay type: functional, cell-based; settings: Homo sapiens
MKN-45 = assay: Compound was tested for its inhibitory effect on the growth of MKN-45 tumor cell line from stomach.; assay type: functional, cell-based; settings: Homo sapiens
BXPC-3 [10] = assay: Compound was tested for its percentage inhibitory effect on the growth of BxPC-3 tumor cell line from […] at an iv dose of 15 mg/kg x14.; assay type: functional, Homo sapiens
PAM12 [11] = assay: Compound was tested for its percentage inhibitory effect on the growth of PAN-12 tumor cell line from […] at an iv dose of 15 mg/kg x14.; assay type: functional, Homo sapiens
DLD-1 [12] = assay: Compound was tested for its percentage inhibitory effect on the growth of DLD-1 tumor cell line from colon at an iv dose of 15 mg/kg x14.; assay type: functional, Homo sapiens
KM12 [13] = assay: Compound was tested for its percentage inhibitory effect on the growth of KM12C tumor cell line from colon at an iv dose of 15 mg/kg x14.; assay type: functional, Homo sapiens
AZ-521 cell line [14] = assay: Compound was tested for its percentage inhibitory effect on the growth of AZ-521 tumor cell line from stomach at an iv dose of 2 mh/kg x10.; assay type: functional, Homo sapiens
Co-3 [15] = assay: Compound was tested for its percentage inhibitory effect on the growth of CO-3 tumor cell line from colon at an iv dose of 15 mg/kg x14.; assay type: functional, Homo sapiens
H-81 [16] = assay: Compound was tested for its percentage inhibitory effect on the growth of H-81 tumor cell line from stomach at an iv dose of 15 mg/kg x14.; assay type: functional, Homo sapiens

| SMILES | IC50 (DLD-1 [2]) [nM] | IC50 (NUGC-3) [nM] | IC50 (MKN-28) [nM] | IC50 (A549) [nM] | IC50 (AZ-521 cell line [3]) [nM] | IC50 (T-24) [nM] | IC50 (SNU-C2A) [nM] | IC50 (PANC-1) [nM] | IC50 (KKLS) [nM] | IC50 (COLO 320DM) [nM] | IC50 (HCT-15) [nM] | IC50 (SW48) [nM] | IC50 (HT-1080) [nM] | IC50 (MKN-45) [nM] | also measured |
| --- | --- | --- | --- | --- | --- | --- | --- | --- | --- | --- | --- | --- | --- | --- | --- |
| C#C[C@]1(O)[C@@H](CO)O[C@@H](n2ccc(=O)[nH]c2=O)[C@@H]1O | 66 | 34 | 80 | 29 | 36 | 34 | 18 | 11000 | 190 | 60 | 43 | 120 | 24 | 24 | Tumor inhibition ratio (H-81 [1]): 92%; Tumor inhibition ratio (KM12 [4]): 81%; Ratio (AZ-521 cell line [5]): 81; Tumor inhibition ratio (Co-3 [6]): 90%; Tumor inhibition ratio (DLD-1 [7]): 73%; Tumor inhibition ratio (PAM12 [8]): 81%; Tumor inhibition ratio (BXPC-3 [9]): 35% |
| O=c1[nH]c(=O)n([C@@H]2O[C@H](CO)[C@@H](O)[C@H]2O)cc1F [5-FLUOROURIDINE] | 73 | 22 | 28 | 1900 | 50 | 14 | 45 | 11000 | 16 | 5.4 | 47 | 16 | 41 | 26 | – |
| O=c1[nH]c(=O)n([C@H]2C[C@H](O)[C@@H](CO)O2)cc1F [FLOXURIDINE] | 92 | 15 | 120 | 1000 | 50 | 120 | 3.3 | > 40000 | 760 | 650 | 49 | 130 | 120 | 3500 | – |
| O=c1[nH]cc(F)c(=O)[nH]1 [FLUOROURACIL] | 6000 | 4400 | 2500 | 1700 | 3900 | 22000 | 2700 | > 78000 | 6200 | 1100 | 5700 | 5700 | – | 3000 | Tumor inhibition ratio (BXPC-3 [10]): 50%; Tumor inhibition ratio (PAM12 [11]): 40%; Tumor inhibition ratio (DLD-1 [12]): 50%; Tumor inhibition ratio (KM12 [13]): 59%; Tumor inhibition ratio (AZ-521 cell line [14]): 25%; Tumor inhibition ratio (Co-3 [15]): 49%; Tumor inhibition ratio (H-81 [16]): 83% |
